Test results published in ChEMBL document CHEMBL1145144, “Structure-based design of cycloamide-urethane-derived novel inhibitors of human brain memapsin 2 (beta-secretase)” (Bioorg Med Chem Lett, 2005).
Values joined by “and” are separate entries in the source; they are usually repeats but may differ in a detail not shown here. Identical values can stand only once.

Assays:
Beta-secretase 1 = Beta-secretase 1 (Homo sapiens, UniProt P56817); assay: Binding affinity for human brain memapsin 2
Beta-secretase 2 = target: T1, Beta-secretase 2 (Homo sapiens, UniProt Q9Y5Z0); assay: Binding affinity for human brain memapsin 1
T1 sequence (Q9Y5Z0 whole entry): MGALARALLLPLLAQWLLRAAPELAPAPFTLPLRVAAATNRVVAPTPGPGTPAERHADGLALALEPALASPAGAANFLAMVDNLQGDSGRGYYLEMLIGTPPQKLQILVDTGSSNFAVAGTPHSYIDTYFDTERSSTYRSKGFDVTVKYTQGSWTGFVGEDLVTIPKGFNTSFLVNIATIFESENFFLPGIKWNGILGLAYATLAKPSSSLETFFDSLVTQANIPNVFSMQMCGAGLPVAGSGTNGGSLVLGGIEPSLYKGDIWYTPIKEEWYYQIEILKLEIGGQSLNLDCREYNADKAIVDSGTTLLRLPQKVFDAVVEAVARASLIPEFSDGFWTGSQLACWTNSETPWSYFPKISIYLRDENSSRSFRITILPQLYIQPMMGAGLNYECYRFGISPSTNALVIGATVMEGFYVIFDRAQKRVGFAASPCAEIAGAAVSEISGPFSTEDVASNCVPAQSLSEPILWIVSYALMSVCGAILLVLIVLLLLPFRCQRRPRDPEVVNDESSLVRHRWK

Beta-secretase 1, sequence (P56817 whole entry): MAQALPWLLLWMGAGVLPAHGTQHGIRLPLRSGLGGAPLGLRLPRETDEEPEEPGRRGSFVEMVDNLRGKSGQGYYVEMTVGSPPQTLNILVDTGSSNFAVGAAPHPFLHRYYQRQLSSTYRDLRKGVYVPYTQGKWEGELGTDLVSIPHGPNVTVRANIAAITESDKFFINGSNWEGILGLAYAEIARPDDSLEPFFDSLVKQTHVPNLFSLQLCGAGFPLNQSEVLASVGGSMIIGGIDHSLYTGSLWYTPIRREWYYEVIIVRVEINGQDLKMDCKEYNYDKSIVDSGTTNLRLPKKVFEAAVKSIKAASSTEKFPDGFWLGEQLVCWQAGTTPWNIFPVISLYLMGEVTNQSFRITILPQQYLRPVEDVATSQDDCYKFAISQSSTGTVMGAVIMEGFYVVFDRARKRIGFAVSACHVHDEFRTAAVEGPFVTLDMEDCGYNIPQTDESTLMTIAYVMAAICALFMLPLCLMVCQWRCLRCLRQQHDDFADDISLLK

Ki (Beta-secretase 1) | Ki (Beta-secretase 2) [nM] | Compound
61.4 nM | – | C=CCCOC(=O)N[C@H](C(=O)N[C@@H](CC(=O)NCC=C)C(=O)N[C@@H](CC(C)C)[C@@H](O)C[C@@H](C)C(=O)N[C@H](C(=O)NCc1ccccc1)C(C)C)C(C)C
28.4 nM | – | CC(C)C[C@H](NC(=O)[C@@H]1CC(=O)NC/C=C/CCOC(=O)N[C@@H](C(C)C)C(=O)N1)[C@@H](O)C[C@@H](C)C(=O)N[C@H](C(=O)NCc1ccccc1)C(C)C
218 nM | – | CC(C)C[C@H](NC(=O)[C@@H]1CC(=O)NCCCCOC(=O)N[C@@H](C(C)C)C(=O)N1)[C@@H](O)C[C@@H](C)C(=O)N[C@H](C(=O)NCc1ccccc1)C(C)C
108 nM | – | CC(C)C[C@H](NC(=O)[C@@H]1CC(=O)NCCCCCOC(=O)N[C@@H](C(C)C)C(=O)N1)[C@@H](O)C[C@@H](C)C(=O)N[C@H](C(=O)NCc1ccccc1)C(C)C
14.2 nM and 31 nM | – | CC(C)C[C@H](NC(=O)[C@@H]1CC(=O)NC/C=C/CCCOC(=O)N[C@@H](C(C)C)C(=O)N1)[C@@H](O)C[C@@H](C)C(=O)N[C@H](C(=O)NCc1ccccc1)C(C)C
87.2 nM | – | CC(C)C[C@H](NC(=O)[C@@H]1CC(=O)NC/C=C/COC(=O)N[C@@H](C(C)C)C(=O)N1)[C@@H](O)C[C@@H](C)C(=O)N[C@H](C(=O)NCc1ccccc1)C(C)C
112 nM | – | C=CCCCOC(=O)N[C@H](C(=O)N[C@@H](CC(=O)NCC=C)C(=O)N[C@@H](CC(C)C)[C@@H](O)C[C@@H](C)C(=O)N[C@H](C(=O)NCc1ccccc1)C(C)C)C(C)C
– | 4.5 | CC(C)C[C@H](NC(=O)[C@@H]1CC(=O)NCCCCCCOC(=O)N[C@@H](C(C)C)C(=O)N1)[C@@H](O)C[C@@H](C)C(=O)N[C@H](C(=O)NCc1ccccc1)C(C)C
